The nature of this data set: mn = molality of the nth substance listed, in mol/kg. The conditions noted are these: 298.15 K, Pendant drop shape, m2 = 0.

Each structure is given as a SMILES string. ± gives the expanded uncertainty stated by the source.

The record followed here is the NIST ThermoML archive (doi:10.1021/je500513b).

As to `O` [water] + CCCCCCCCCCCC[N+](C)(C)CCCCCC[N+](C)(C)CCCCCCCCCCCC.[Br-].[Br-], the surface tension liquid-gas is on record as 71.98 ± 2.2 mN/m.
